Broadly, the IC50 is the concentration that gives 50% inhibition.

The record followed here is US20240016953A1, “TARGETED DELIVERY OF NICOTINAMINDE ADENINE DINUCLEOTIDE SALVAGE PATHWAY INHIBITORS” (Seagen Inc., priority 2016, published 2024).

Assay [1] concerns HepG2 (hepatocellular carcinoma). The experiment in a line: Cytotoxicity (CellTiter-Glo) assay, HepG2. Type of assay: cell-based. Particulars: Homo sapiens, HepG2, read-out: IC50, Cytotoxicity HepG2. As to the method:
(§1) Example 99: Binding and cytoxicity of NAMPTi compounds. NAMPTi compounds and derivatives thereof bearing functional groups on their NAMPT Tail (TN) Units for covalent attachment as a NAMPT Drug Unit to a Linker Unit of a Drug Linker compound or Ligand Drug Conjugate were evaluated for binding to enzymatically competent NAMPT using a fluorescence polarization assay as described in Example X, and for cytotoxicity using the CellTiter-Glo™ assay as described in Example XX. […] In vitro cytotoxicities were more varied, with differences in membrane permeability potentially influencing the observed IC50 values. Tighter-binding compounds determined from the polarization assay representation various NAMPT Head Unit classes were selected for further elaboration into drug linker moieties within Drug Linker compounds and Ligand Drug Conjugates. Those elaborations employed carbamate or benzyl ether functional groups or methylene-alkoxy carbamate (MAC) units for covalent attachment of the NAMPT Drug Unit to a self-immolative Spacer Unit in the Linker Units of the drug linker moieties, depending on the functional group presented by the TN Unit.
(In general: Cellular ATP, detected with luciferase, serves as a proxy for viable cell number.)

The subject of assay [2] is L540cy (Hodgkin's lymphoma). In words: Cytotoxicity (CellTiter-Glo) assay, L540cy. The class given is cell-based. As to conditions: read-out: IC50, Cytotoxicity L540cy. As to the method:
as §1

The test system of assay [3] is BxPC-3 (pancreatic adenocarcinoma). The experiment in a line: Cytotoxicity (CellTiter-Glo) assay, BxPC-3. The class given is cell-based. As to conditions: Homo sapiens, BXPC-3, read-out: IC50, Cytotoxicity BxPC-3. As to the method: as §1
Another assay addresses T1, NAMPT (Homo sapiens, UniProt P43490).
T1 construct: made in house; host or cells: E. coli (pET28a vector, Novagen)
In words: Fluorescence polarization (FP) assay for binding to purified NAMPT. As to conditions: for IC50: NAMPT 120 nM, fluorescent probe 30 nM, 4 hours at room temp. (In general: Polarisation of emitted light reports the rotation of a fluorescent probe.)

In assay [4] the test system is MOLM-13 (acute myeloid leukemia). The experiment in a line: Cytotoxicity (CellTiter-Glo) assay, MOLM-13. The class given is cell-based. Particulars: Homo sapiens, MOLM-13, read-out: IC50, Cytotoxicity MOLM-13. As to the method: as §1

T1 sequence (P43490 whole entry): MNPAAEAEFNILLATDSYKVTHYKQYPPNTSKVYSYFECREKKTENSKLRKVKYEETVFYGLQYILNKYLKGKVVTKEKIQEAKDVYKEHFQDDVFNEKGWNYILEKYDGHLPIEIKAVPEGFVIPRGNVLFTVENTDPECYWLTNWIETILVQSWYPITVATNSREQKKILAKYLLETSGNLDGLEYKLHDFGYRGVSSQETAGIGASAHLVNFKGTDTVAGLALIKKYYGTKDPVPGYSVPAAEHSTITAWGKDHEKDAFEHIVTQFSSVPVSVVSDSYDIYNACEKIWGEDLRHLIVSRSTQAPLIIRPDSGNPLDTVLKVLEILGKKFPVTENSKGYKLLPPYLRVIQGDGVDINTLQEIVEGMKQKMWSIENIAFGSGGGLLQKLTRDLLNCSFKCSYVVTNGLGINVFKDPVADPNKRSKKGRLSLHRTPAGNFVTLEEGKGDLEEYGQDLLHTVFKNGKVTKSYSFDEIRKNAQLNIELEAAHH

Regarding `N#C/N=C(\NCCCCCCCC(=O)N(CCO)Cc1ccco1)Nc1ccncc1` [compound 81, (E)-8-(2-Cyano-3-(Pyridin-4-Yl)Guanidino)-N-(Furan-2-Ylmethyl)-N-(2-Hydroxyethyl)Octanamide], the IC50 in assay [1] was 6.44 nM; in assay [2] it was 1.6 nM; in assay [3], 17.7 nM; at NAMPT, 24 nM; in assay [4], 2.07 nM.

`O=C(/C=C/c1cccnc1)NCCCCC1CCN(C(=O)c2ccc(OCCO)cc2)CC1` [compound 10, (E)-N-(4-(1-(4-(2-Hydroxyethoxy)Benzoyl)Piperidin-4-Yl)Butyl)-3-(Pyridin-3-Yl)Acrylamide]: on NAMPT, the IC50 worked out at 91 nM.

For the molecule `CCN(CCON(C(=O)CCCCCCNc1c(Nc2ccncc2)c(=O)c1=O)C1CCCCC1)C(=O)c1cccc(N)c1` [compound 60], the half-inhibitory concentration (IC50) in assay [1] is 35 nM; in assay [2] it was 31 nM; in assay [3], 126 nM; at NAMPT, 62 nM; in assay [4] it was 8 nM.

For the molecule `O=C(/C=C/c1cccnc1)NCCCCC1CCN(C(=O)c2ccc(O)cc2)CC1` [compound 7, (E)-N-(4-(1-(4-Hydroxybenzoyl)Piperidin-4-Yl)Butyl)-3-(Pyridin-3-Yl)Acrylamide], the IC50 at NAMPT amounted to 79 nM.

`CN(CC1(CO)CCCC1)C(=O)CCCCCCCN/C(=N\C#N)Nc1ccncc1` [compound 80, (E)-8-(2-Cyano-3-(Pyridin-4-Yl)Guanidino)-N-((1-(Hydroxymethyl)Cyclopentyl)Methyl)-N-Methyloctanamide]: the concentration for half-maximal inhibition (IC50) in assay [1] turned out to be 1.08 nM; in assay [2], 0.78 nM; in assay [3], 6.12 nM; on NAMPT, 17 nM; in assay [4], 1.63 nM.

For the molecule `O=C(CCCCCCNc1c(Nc2ccncc2)c(=O)c1=O)N(OCCN1CCOCC1)C1CCCCC1` [compound 52, reference compound], the half-maximal inhibitory concentration (IC50) amounted to 8.75 nM in assay [1]; 4.76 nM in assay [2]; 39 nM in assay [3]; 41 nM at NAMPT; 5.26 nM in assay [4].

Take `CN(CC1(CO)CCCC1)C(=O)CCCCCCCNc1c(Nc2ccncc2)c(=O)c1=O` [compound 69, 8-((3,4-Dioxo-2-(Pyridin-4-Ylamino)Cyclobut-1-En-1-Yl)Amino)-N-((1-(Hydroxymethyl)Cyclopentyl)Methyl)-N-Methyloctanamide]: the half-maximal inhibitory concentration (IC50) in assay [1] is 12.5 nM; in assay [2], 9.12 nM; in assay [3], 96.9 nM; on NAMPT, 35 nM; in assay [4] it was 18 nM.

`N#C/N=C(\NCCCCCCCC(=O)N1CCC(O)CC1)Nc1ccncc1` [compound 82, (E)-2-Cyano-1-(8-(4-Hydroxypiperidin-1-Yl)-8-Oxooctyl)-3-(Pyridin-4-Yl)Guanidine]: the 50% inhibitory concentration (IC50) in assay [1] is 25 nM; in assay [2], 39 nM; in assay [3] it was 169 nM; in assay [4], 10 nM.

Turning to `Nc1cccc(C(=O)N2CCC(CCCCNC(=O)/C=C/c3cccnc3)CC2)c1` [compound 3], the concentration for half-maximal inhibition (IC50) in assay [1] is 8 nM; in assay [2], 8.5 nM; in assay [3] it was 38.5 nM; at NAMPT, 40 nM; in assay [4], 7 nM.

Consider `Nc1ccccc1C(=O)N1CCC(CCCCNC(=O)/C=C/c2cccnc2)CC1` [compound 5, (E)-N-(4-(1-(2-Aminobenzoyl)Piperidin-4-Yl)Butyl)-3-(Pyridin-3-Yl)Acrylamide], for which the IC50 in assay [1] amounted to 1000 nM; in assay [2] it was 35 nM; in assay [3], 694 nM; on NAMPT it was 101 nM; in assay [4] it was 40 nM.

For the molecule `CN(CCON(C(=O)CCCCCCNC(=O)Nc1ccncc1)C1CCCCC1)C(=O)c1cccc(N)c1` [compound 43, 3-Amino-N-(2-((N-Cyclohexyl-7-(3-(Pyridin-4-Yl)Ureido)-Heptanamido)Oxy)Ethyl)-N-Methylbenzamide], the IC50 was 4 nM in assay [1]; 3 nM in assay [2]; 8 nM in assay [3]; 82 nM at NAMPT; 6 nM in assay [4]. Further, the “Change in NAMPT enzyme binding on modification of the TN Unit, relative to parent NAMPTi compound” value on NAMPT (FP assay, in words) is “significant improvement in binding relative to parent compound 30”.

At NAMPT, `Nc1ccc(C(=O)N2CCC(CCCCNC(=O)/C=C/c3cccnc3)CC2)cc1` [compound 4, (E)-N-(4-(1-(4-Aminobenzoyl)Piperidin-4-Yl)Butyl)-3-(Pyridin-3-y1)Acrylamide] came in with an IC50 of 114 nM.

Regarding `CN(CCO)C(=O)CCCCCCCN/C(=N\C#N)Nc1ccncc1` [compound 83, (E)-8-(2-Cyano-3-(Pyridin-4-Yl)Guanidino)-N-(2-Hydroxyethyl)-N-Methyloctanamide], the concentration for half-maximal inhibition (IC50) in assay [1] stood at 75.4 nM; in assay [2], 51.2 nM; in assay [3], 886 nM; on NAMPT, 32 nM; in assay [4], 153 nM.

For the molecule `O=C(CCCCCCCNc1c(Nc2ccncc2)c(=O)c1=O)N1CCC(O)CC1` [compound 67], the IC50 came to 948 nM in assay [1]; 265 nM in assay [2]; 1000 nM in assay [3]; 16 nM on NAMPT; 108 nM in assay [4].

In the case of `O=C(/C=C/c1cccnc1)NCCCCC1CCN(C(=O)c2ccccc2O)CC1` [compound 8, (E)-N-(4-(1-(2-Hydroxybenzoyl)Piperidin-4-Yl)Butyl)-3-(Pyridin-3-Yl)Acrylamide], the half-maximal inhibitory concentration (IC50) in assay [1] came out at 221 nM; in assay [2], 87.3 nM; in assay [3] it was 643 nM; at NAMPT, 101 nM; in assay [4], 99 nM.

Take `O=C(/C=C/c1cccnc1)NCCCCC1CCN(C(=O)c2ccccc2)CC1` [FK-866, reference compound]: the 50% inhibitory concentration (IC50) came out at 5.45 nM in assay [1], 7.32 nM in assay [2], 36.2 nM in assay [3] and 6.64 nM in assay [4].

`CN(CCO)C(=O)CCCCCCCNc1c(Nc2ccncc2)c(=O)c1=O` [compound 72]: the IC50 was 1000 nM in assay [1]; 1000 nM in assay [2]; 1000 nM in assay [3]; 29 nM at NAMPT; 807 nM in assay [4].

`O=C(/C=C/c1cccnc1)NCCCCC1CCN(C(=O)c2cccc(OCCO)c2)CC1` [compound 9, (E)-N-(4-(1-(3-(2-Hydroxyethoxy)Benzoyl)Piperidin-4-Yl)Butyl)-3-(Pyridin-3-Yl)Acrylamide] displayed a concentration for half-maximal inhibition (IC50) at NAMPT of 80 nM.

On to `O=C(CCCCCCCNc1c(Nc2ccncc2)c(=O)c1=O)N(CCO)Cc1ccco1` [compound 66], for which the IC50 in assay [1] worked out at 59.8 nM; in assay [2] it was 22.5 nM; in assay [3] it was 209 nM; on NAMPT it was 24 nM; in assay [4] it was 26.9 nM.

For `O=C(CCCCCCCNc1c(Nc2ccncc2)c(=O)c1=O)N1CC(O)C1` [compound 68], the concentration for half-maximal inhibition (IC50) turned out to be 1000 nM in assay [1]; 1000 nM in assay [2]; 1000 nM in assay [3]; 27 nM at NAMPT; 811 nM in assay [4].

As for `N#CN=C(NCCCCCCOc1ccc(Cl)cc1)Nc1ccncc1` [CHS-828, reference compound], the half-inhibitory concentration (IC50) in assay [1] was 1.16 nM; in assay [2], 2.22 nM; in assay [3], 8.02 nM; in assay [4] it was 4.62 nM.

Take `O=C(/C=C/c1cccnc1)NCCCCC1CCN(C(=O)c2cccc(O)c2)CC1` [compound 6, (E)-N-(4-(1-(3-Hydroxybenzoyl)Piperidin-4-Yl)Butyl)-3-(Pyridin-3-Yl)Acrylamide]: the IC50 in assay [1] worked out at 29 nM; in assay [2], 20 nM; in assay [3], 193 nM; at NAMPT, 36 nM; in assay [4], 8 nM.
